# Data published in patent US10618902B2, “Substituted pyrido[2,3-d]pyrimidines as inhibitors of protein kinases” (Celgene CAR LLC, priority 2013, dated 2020).
# Read-outs that look alike come from different tables or passages of the source.
# How the values were obtained:
# FGFR4-WT = FGFR4-WT (Homo sapiens (Human), UniProt P22455); experiment: Omnia assay for potency against FGFR4 enzyme; format: biochemical; settings: method a: FGFR4-WT (Invitrogen) 10 nM, ATP 300 uM, Y10-Sox 10 uM
# Procedure: A 10× stock solution of FGFR4-WT (PR4380C or P3054), (from Invitrogen, Carlsbad, Calif.) corresponding to method a in Table 10, was prepared as described below. Alternatively, a 10× stock solution of FGFR4-WT (F01-11G), (SignalChem, Richmond, BC) corresponding to method b in Table 10, was prepared as described below. A solution of 1.4×ATP (AS001A) and 5× Tyr-Sox conjugated peptide substrate (KNZ3101) were prepared in 1× kinase reaction buffer consisting of 20 mM Tris, pH 7.5, 5 mM MgCl2, 1 mM EGTA, 5 mM […], 5% glycerol (10× stock, KB002A) and 0.2 mM DTT (DS001A). […] The serially diluted compounds were prepared on a Tecan EVO100. A second addition of 10 μl of Tyr-Sox FGFR4 substrate was added to each well and the kinase reactions were started with the addition of 35 μL of 1.4×ATP. The reactions were monitored every 71 seconds for 240 minutes at λex360/λem485 in a Synergy plate reader from BioTek (Winooski, Vt.). […] Methods:
# a) [FGFR4-WT]=10 nM, [ATP]=300 uM, [Y10-Sox]=10 uM (ATP KMapp−300 uM),
# MDA-MB-453 cells = experiment: Cell proliferation, MDA-MB-453 (CellTiter Glo); format: cell-based; settings: Homo sapiens, 96 hr
# Procedure: (§1) The growth inhibition (GI50) values were determined by Graph Pad Prism.
# pFGFR4 (Huh7 cells) = pFGFR4 (Huh7 cells) (Homo sapiens (Human), UniProt P22455); experiment: FGFR4 signaling (pFGFR4) in Huh7 cells (MSD); format: cell-based; settings: read-out: Signaling EC50 (nM) pFGFR4 (Huh)
# Huh7 cells = experiment: Cell proliferation, Huh7 (CellTiter Glo); format: cell-based
# Procedure: as §1
# [1] = 120 hr, read-out: Cell Proliferation GI50 (nM) HUH
# FGFR4-WT, sequence (P22455 22-802): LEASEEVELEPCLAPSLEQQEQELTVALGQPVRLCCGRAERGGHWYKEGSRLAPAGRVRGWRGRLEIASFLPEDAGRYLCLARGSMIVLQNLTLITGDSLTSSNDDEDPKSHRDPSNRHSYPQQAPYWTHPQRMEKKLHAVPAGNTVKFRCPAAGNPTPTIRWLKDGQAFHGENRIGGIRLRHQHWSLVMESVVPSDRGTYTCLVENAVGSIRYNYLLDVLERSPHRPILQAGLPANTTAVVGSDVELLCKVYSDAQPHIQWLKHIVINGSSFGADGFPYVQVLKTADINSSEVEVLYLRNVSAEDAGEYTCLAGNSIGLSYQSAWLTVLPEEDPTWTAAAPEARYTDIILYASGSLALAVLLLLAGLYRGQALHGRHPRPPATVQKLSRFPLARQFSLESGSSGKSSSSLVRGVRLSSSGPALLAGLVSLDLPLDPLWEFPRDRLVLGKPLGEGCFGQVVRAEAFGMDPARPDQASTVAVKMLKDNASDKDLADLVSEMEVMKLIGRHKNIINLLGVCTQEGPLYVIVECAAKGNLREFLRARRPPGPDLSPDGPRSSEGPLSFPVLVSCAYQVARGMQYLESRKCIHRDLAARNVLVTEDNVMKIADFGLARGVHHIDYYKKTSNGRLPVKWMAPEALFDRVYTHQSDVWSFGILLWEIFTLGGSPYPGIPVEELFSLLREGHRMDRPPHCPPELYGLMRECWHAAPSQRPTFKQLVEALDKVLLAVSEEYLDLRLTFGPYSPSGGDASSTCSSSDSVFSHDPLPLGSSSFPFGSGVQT
# pFGFR4 (Huh7 cells), sequence (P22455 22-802): as above
Structure (SMILES),IC50 (FGFR4-WT) [µM],GI50 (MDA-MB-453 cells) [nM],EC50 (pFGFR4 (Huh7 cells)) [nM],"GI50 (Huh7 cells; Homo sapiens, Huh-7, 120 hr) [nM]",GI50 (Huh7 cells; [1]) [nM]
C=CC(=O)NC1CCCCC1Nc1ncc2c(n1)N(CCF)C(=O)N(c1c(Cl)c(OC)cc(OC)c1Cl)C2 (racemic) [Compound I-106],0.101 to 0.5,–,–,–,–
C=CC(=O)NC1CN(C)CC1Nc1ncc2c(n1)N(C)C(=O)N(c1c(Cl)c(OC)cc(OC)c1Cl)C2 (racemic) [Compound I-138],0.101 to 0.5,–,–,–,–
C=CC(=O)NC1CN(C(C)=O)CC1Nc1ncc2c(n1)N(C)C(=O)N(c1c(Cl)c(OC)cc(OC)c1Cl)C2 (racemic) [Compound I-139],< 0.1,–,–,–,–
C=CC(=O)N[C@H]1COC[C@H]1Nc1ncc2cc(-c3c(Cl)c(OC)cc(OC)c3Cl)c(=O)n(C)c2n1 [Compound I-241],–,< 100,–,–,–
C=CC(=O)NC1CN(c2ccn(C)n2)CC1Nc1ncc2cc(-c3c(Cl)c(OC)cc(OC)c3Cl)c(=O)n(C)c2n1 (stereo not drawn) [Compound I-248],< 0.1,–,< 100,< 100,–
C#CC(=O)N[C@H]1COC[C@H]1Nc1ncc2cc(-c3c(Cl)c(OC)cc(OC)c3Cl)c(=O)n(C)c2n1 [Compound I-251],< 0.1,–,< 100,–,–
C=CC(=O)NC1CN(c2ccccn2)CC1Nc1ncc2cc(-c3c(Cl)c(OC)cc(OC)c3Cl)c(=O)n(C)c2n1 (stereo not drawn) [Compound I-252],< 0.1,–,< 100,–,–
C=CS(=O)(=O)N[C@H]1CCC[C@H]1Nc1ncc2cc(-c3c(Cl)c(OC)cc(OC)c3Cl)c(=O)n(C)c2n1 [Compound I-253],< 0.1,–,< 100,–,–
C=CC(=O)N[C@H]1COC[C@H]1Nc1ncc2cc(-c3cc(OC)cc(OC)c3Cl)c(=O)n(C)c2n1 [Compound I-254],–,–,–,–,101 to 500
C=CC(=O)NC1CS(=O)(=O)CC1Nc1ncc2cc(-c3c(Cl)c(OC)cc(OC)c3Cl)c(=O)n(C)c2n1 (stereo not drawn) [Compound I-256],< 0.1,–,< 100,–,–
C=CC(=O)Nc1cc(F)c(F)cc1Nc1ncc2cc(-c3c(Cl)c(OC)cc(OC)c3Cl)c(=O)n(C)c2n1 [Compound I-257],< 0.1,–,< 100,101 to 500,–
C=CC(=O)Nc1ccc(C(F)(F)F)cc1Nc1ncc2cc(-c3c(Cl)c(OC)cc(OC)c3Cl)c(=O)n(C)c2n1 [Compound I-258],< 0.1,–,< 100,–,–
C=CC(=O)Nc1cccc(F)c1Nc1ncc2cc(-c3c(Cl)c(OC)cc(OC)c3Cl)c(=O)n(C)c2n1 [Compound I-259],< 0.1,–,< 100,101 to 500,–
C=CC(=O)Nc1cc(-c2cnn(C)c2)ccc1Nc1ncc2cc(-c3c(Cl)c(OC)cc(OC)c3Cl)c(=O)n(C)c2n1 [Compound I-264],< 0.1,–,< 100,–,–
C=CC(=O)N[C@H]1COC[C@H]1Nc1ncc2cc(-c3cc(C(=O)Nc4cccc(C(C)(C)C)c4)ccc3Cl)c(=O)n(C)c2n1 [Compound I-265],< 0.1,–,< 100,–,–
C=CC(=O)Nc1cc(-c2ccn(C)n2)ccc1Nc1ncc2cc(-c3c(Cl)c(OC)cc(OC)c3Cl)c(=O)n(C)c2n1 [Compound I-267],< 0.1,–,< 100,–,–
C=CC(=O)N[C@H]1COC[C@H]1Nc1ncc2cc(-c3cc(OC)cc(OC)c3F)c(=O)n(C)c2n1 [Compound I-274],< 0.1,–,< 100,–,–
C=CC(=O)Nc1nc(C)ccc1Nc1ncc2cc(-c3c(Cl)c(OC)cc(OC)c3Cl)c(=O)n(C)c2n1 [Compound I-278],< 0.1,–,< 100,–,–
C=CC(=O)N[C@H]1COC[C@H]1Nc1ncc2cc(-c3c(F)c(OC)cc(OC)c3Cl)c(=O)n(C)c2n1 [Compound I-279],–,< 100,–,< 100,–
C=CC(=O)N[C@H]1COC[C@H]1Nc1ncc2cc(-c3c(F)c(OC)cc(OC)c3F)c(=O)n(C)c2n1 [Compound I-281],–,101 to 500,–,< 100,–

Structure (SMILES),IC50 (FGFR4-WT) [µM],GI50 (MDA-MB-453 cells) [nM],EC50 (pFGFR4 (Huh7 cells)) [nM],"GI50 (Huh7 cells; Homo sapiens, Huh-7, 120 hr) [nM]",GI50 (Huh7 cells; [1]) [nM]
C=CC(=O)Nc1c(Nc2ncc3cc(-c4c(Cl)c(OC)cc(OC)c4Cl)c(=O)n(C)c3n2)ccc(F)c1F [Compound I-282],< 0.1,–,101 to 500,–,–
C=CC(=O)NC1CC(O)CC1Nc1ncc2cc(-c3c(Cl)c(OC)cc(OC)c3Cl)c(=O)n(C)c2n1 (stereo not drawn) [Compound I-284],< 0.1,–,101 to 500,–,–
C=CC(=O)NC1CC(=O)CC1Nc1ncc2cc(-c3c(Cl)c(OC)cc(OC)c3Cl)c(=O)n(C)c2n1 (stereo not drawn) [Compound I-286],< 0.1,–,< 100,–,–
C=CC(=O)NC1CC(F)(F)CC1Nc1ncc2cc(-c3c(Cl)c(OC)cc(OC)c3Cl)c(=O)n(C)c2n1 (stereo not drawn) [Compound I-288],< 0.1,–,< 100,–,–
C=CC(=O)N[C@H]1COC[C@H]1Nc1ncc2cc(-c3c(Cl)c(OC)cc(OC)c3Cl)c(=O)[nH]c2n1 [Compound I-290],< 0.1,–,< 100,< 100,–
C=CC(=O)N[C@H]1COC[C@H]1Nc1ncc2cc(-c3c(Cl)c(OC)cc(OCC)c3Cl)c(=O)n(C)c2n1 [Compound I-291],< 0.1,–,< 100,–,< 100
C=CC(=O)N[C@H]1CN(c2cc[nH]n2)C[C@H]1Nc1ncc2cc(-c3c(Cl)c(OC)cc(OC)c3Cl)c(=O)n(C)c2n1 [Compound I-292],< 0.1,–,< 100,< 100,–
C=CC(=O)N[C@@H]1CN(c2cc[nH]n2)C[C@@H]1Nc1ncc2cc(-c3c(Cl)c(OC)cc(OC)c3Cl)c(=O)n(C)c2n1 [Compound I-293],0.101 to 0.5,–,101 to 500,–,–
C=CC(=O)N[C@H]1COC[C@H]1Nc1ncc2cc(-c3c(C)c(OC)cc(OC)c3C)c(=O)n(C)c2n1 [Compound I-294],–,–,–,101 to 500,–
C=CC(=O)N[C@H]1COC[C@H]1Nc1ncc2cc(-c3c(Cl)c(OC)cc(OC)c3Cl)c(=O)n(CCOC)c2n1 [Compound I-295],< 0.1,–,< 100,–,< 100
C=CC(=O)N[C@H]1COC[C@H]1Nc1ncc2cc(-c3c(Cl)c(OC)cc(OC)c3Cl)c(=O)n(C(C)C)c2n1 [Compound I-296],< 0.1,–,< 100,–,–
C=CC(=O)N[C@H]1COC[C@H]1Nc1ncc2cc(-c3c(Cl)c(OC)cc(OC)c3Cl)c(=O)nc-2n1CC1CCOC1 (stereo partly drawn) [Compound I-298],< 0.1,–,< 100,–,< 100
C=CC(=O)N[C@H]1COC[C@H]1Nc1ncc2cc(-c3c(Cl)c(OC)cc(OC)c3Cl)c(=O)nc-2n1C[C@H]1CCN(C(C)=O)C1 [Compound I-299],< 0.1,–,< 100,–,101 to 500
C=CC(=O)N[C@H]1COC[C@H]1Nc1ncc2cc(-c3c(Cl)c(OC)cc(OC)c3Cl)c(=O)nc-2n1C1CCOCC1 [Compound I-300],< 0.1,–,< 100,–,–
C=CC(=O)N[C@H]1COC[C@H]1Nc1ncc2cc(-c3cc(OC)cc(OC)c3Cl)c(=O)nc-2n1C[C@H]1CCN(C(C)=O)C1 [Compound I-301],< 0.1,–,< 100,–,< 100
C=CC(=O)N[C@H]1COC[C@H]1Nc1ncc2cc(-c3c(Cl)c(OC)cc(OC)c3Cl)c(=O)nc-2n1CCO [Compound I-303],< 0.1,–,< 100,–,101 to 500
C=CC(=O)N[C@H]1COC[C@H]1Nc1ncc2cc(-c3c(Cl)c(OC)cc(OC)c3Cl)c(=O)nc-2n1CCF [Compound I-304],< 0.1,–,< 100,–,–
C=CC(=O)N[C@H]1COC[C@H]1Nc1ncc2cc(-c3cc(OC)cc(OC)c3Cl)c(=O)nc-2n1C [Compound I-306],< 0.1,–,< 100,–,–
C=CC(=O)N[C@H]1COC[C@H]1Nc1ncc2cc(-c3c(Cl)c(OC)cc(OC)c3Cl)c(=O)n(C[C@@H]3CCN(C(C)=O)C3)c2n1 [Compound I-307],< 0.1,–,< 100,101 to 500,–
C=CC(=O)N[C@H]1COC[C@H]1Nc1ncc2cc(-c3cc(OC)cc(OC)c3Cl)c(=O)n(CC3CCN(C(C)=O)C3)c2n1 (stereo partly drawn) [Compound I-308],< 0.1,–,< 100,–,101 to 500
